Measured values: patent US8501446B2 (Vertex Pharmaceuticals Incorporated, priority 2004, dated 2013)
pKi: −log10 of the molar value. Like-named read-outs stand apart in the source and are kept apart here.

How the values were obtained:
Assay type in all cases: biochemical
[1] = molecular target: T1, full length Aurora-A (AA 1-403) (Homo sapiens, UniProt O14965); experiment: Aurora-A inhibition assay, standard coupled enzyme system; settings: average Ki if more than one value determined
T1 construct: full length Aurora-A (AA 1-403)
T1 sequence (O14965 1-403): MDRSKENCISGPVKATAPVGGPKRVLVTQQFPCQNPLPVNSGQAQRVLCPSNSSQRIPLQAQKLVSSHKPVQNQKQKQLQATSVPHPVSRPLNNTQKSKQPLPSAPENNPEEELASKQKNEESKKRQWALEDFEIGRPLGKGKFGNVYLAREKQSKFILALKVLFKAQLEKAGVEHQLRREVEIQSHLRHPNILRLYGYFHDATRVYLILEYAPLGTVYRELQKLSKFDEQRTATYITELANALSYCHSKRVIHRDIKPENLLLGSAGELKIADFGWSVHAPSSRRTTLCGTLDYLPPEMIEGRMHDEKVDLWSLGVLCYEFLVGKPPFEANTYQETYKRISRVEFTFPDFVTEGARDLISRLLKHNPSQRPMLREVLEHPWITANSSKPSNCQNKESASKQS

JAK2 = JAK2 (Homo sapiens, UniProt O60674); experiment: JAK2 inhibition assay (radioactive enzyme assay, as for JAK3); settings: average Ki if more than one value determined
JAK2, sequence (O60674 whole entry, species assumed): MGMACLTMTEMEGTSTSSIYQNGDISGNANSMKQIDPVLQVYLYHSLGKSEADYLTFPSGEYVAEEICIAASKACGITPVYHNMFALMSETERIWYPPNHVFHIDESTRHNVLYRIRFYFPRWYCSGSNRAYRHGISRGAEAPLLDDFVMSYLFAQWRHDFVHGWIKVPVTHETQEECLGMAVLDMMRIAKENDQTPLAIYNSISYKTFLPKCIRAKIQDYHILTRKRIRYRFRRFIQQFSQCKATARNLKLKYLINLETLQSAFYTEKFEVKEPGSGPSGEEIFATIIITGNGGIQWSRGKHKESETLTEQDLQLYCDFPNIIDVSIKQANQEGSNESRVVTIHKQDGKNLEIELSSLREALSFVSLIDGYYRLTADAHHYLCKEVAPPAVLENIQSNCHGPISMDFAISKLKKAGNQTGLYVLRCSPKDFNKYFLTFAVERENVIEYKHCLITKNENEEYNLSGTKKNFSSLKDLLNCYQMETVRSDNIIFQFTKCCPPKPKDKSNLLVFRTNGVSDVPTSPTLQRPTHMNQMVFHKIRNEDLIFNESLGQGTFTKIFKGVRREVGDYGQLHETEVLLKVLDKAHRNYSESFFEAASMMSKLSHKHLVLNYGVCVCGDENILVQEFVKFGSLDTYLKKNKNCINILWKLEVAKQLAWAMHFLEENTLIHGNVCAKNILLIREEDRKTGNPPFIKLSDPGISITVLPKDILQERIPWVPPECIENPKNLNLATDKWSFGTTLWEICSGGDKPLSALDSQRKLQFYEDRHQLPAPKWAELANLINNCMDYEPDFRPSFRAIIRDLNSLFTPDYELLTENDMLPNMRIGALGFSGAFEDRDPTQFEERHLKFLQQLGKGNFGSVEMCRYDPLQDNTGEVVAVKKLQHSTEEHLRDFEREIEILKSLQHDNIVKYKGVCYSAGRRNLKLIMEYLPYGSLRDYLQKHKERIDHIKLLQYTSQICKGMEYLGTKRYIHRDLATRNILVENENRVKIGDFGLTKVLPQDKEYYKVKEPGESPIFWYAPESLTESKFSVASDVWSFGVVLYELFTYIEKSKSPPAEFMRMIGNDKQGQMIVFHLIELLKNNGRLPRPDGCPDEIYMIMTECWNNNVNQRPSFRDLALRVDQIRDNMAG
In short: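 Both kinases: poly(Glu)4Tyr substrate in 100 mM HEPES pH 7.4, 10 mM MgCl2, 1 mM DTT. Run 20 min at 25° C, TCA stop, filter-bound ³³P counted, Ki(app) fitted after background subtraction. JAK3: final [γ-³³P]ATP 5 μM, enzyme added as 2 nM solution. JAK2: final poly(Glu)4Tyr 15 μM, final ATP 12 μM.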

ROCK = ROCK (Homo sapiens, UniProt Q13464); experiment: ROCK inhibition assay, standard radioactive enzyme assay ("33P")
ROCK, sequence (Q13464 whole entry): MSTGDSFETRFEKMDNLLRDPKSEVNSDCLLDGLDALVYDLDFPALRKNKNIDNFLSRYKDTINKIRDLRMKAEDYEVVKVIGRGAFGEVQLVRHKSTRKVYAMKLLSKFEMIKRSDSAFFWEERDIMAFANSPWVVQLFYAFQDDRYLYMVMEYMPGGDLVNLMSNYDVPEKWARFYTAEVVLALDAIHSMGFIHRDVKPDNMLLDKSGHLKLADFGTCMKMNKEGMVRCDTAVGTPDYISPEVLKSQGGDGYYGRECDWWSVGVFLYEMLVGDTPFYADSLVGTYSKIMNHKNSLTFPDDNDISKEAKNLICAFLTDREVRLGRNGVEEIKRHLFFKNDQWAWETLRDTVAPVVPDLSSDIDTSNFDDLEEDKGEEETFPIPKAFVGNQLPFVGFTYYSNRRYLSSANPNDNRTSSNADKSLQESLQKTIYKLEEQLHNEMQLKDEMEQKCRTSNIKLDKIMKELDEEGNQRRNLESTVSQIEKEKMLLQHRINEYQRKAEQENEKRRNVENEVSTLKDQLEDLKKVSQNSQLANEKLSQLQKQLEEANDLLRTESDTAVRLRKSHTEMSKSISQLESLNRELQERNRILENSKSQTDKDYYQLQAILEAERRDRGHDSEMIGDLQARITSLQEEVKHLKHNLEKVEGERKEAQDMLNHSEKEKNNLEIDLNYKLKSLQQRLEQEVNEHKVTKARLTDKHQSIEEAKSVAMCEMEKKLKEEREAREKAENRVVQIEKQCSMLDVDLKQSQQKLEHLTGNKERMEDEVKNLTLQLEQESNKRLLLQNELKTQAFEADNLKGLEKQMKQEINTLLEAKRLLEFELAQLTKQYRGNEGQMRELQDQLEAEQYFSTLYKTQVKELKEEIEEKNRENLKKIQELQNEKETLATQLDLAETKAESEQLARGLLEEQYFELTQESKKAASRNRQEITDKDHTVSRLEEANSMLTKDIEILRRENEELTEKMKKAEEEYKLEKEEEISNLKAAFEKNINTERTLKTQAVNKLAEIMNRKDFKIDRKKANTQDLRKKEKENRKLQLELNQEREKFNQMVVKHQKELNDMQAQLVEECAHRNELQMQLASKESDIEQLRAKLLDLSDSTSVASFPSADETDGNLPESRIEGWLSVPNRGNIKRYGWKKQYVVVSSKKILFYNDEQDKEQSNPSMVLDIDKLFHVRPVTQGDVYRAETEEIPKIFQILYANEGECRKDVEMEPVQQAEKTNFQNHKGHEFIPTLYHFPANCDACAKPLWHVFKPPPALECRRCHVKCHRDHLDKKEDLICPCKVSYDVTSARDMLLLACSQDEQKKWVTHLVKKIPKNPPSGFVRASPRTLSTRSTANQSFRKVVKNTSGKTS
Protocol: Some compounds were screened for their ability to inhibit ROCK using a standard radioactive enzyme assay. Assays were carried out in a solution containing 100 mM HEPES (pH 7.5), 10 mM MgCl2, 25 mM NaCl, 2 mM DTT, and 1.5% DMSO. Final substrate concentrations in the assay were 13 μM [γ-^33P] ATP (25 mCi ^33P ATP/mmol ATP, Perkin Elmer, Cambridge, Mass./Sigma Chemicals, St Louis, Mo.) and 27 μM Myelin Basic Protein (MBP). Final enzyme concentration in the assay was 5 nM ROCK. Assays were carried out at room temperature. 1.5 μl of DMSO stock containing serial dilutions of the compound of the present invention (concentrations ranging from 10 μM to 2.6 nM) was placed in a 96 well plate. 50 μl of Solution 1 (100 mM HEPES (pH 7.5), 10 mM MgCl2, […]) was added to the plate. The reaction was initiated by addition of 50 μl of Solution 2 (100 mM HEPES (pH 7.5), 10 mM MgCl2, 4 mM DTT, […] and 10 nM ROCK). After 2 hours the reaction was quenched with 50 μL of 30% trichloroacetic acid (TCA, Fisher) containing 9 mM ATP. Transfer of 140 μL of the quenched reaction to a glass fiber filter plate (Corning, Cat. No. 3511) was followed by washing 3 times with 5% TCA. 50 μL of Optima Gold scintillation fluid (Perkin Elmer) was added and the plates were counted on a Top Count (Perkin Elmer). After removing mean background values for all of the data points the data was fit using Prism software to obtain a Ki(app).

JAK3 = molecular target: T2, JAK3 (Homo sapiens, UniProt P52333); experiment: JAK3 inhibition assay (standard radioactive enzyme assay); settings: average Ki if more than one value determined
T2 sequence (P52333 1-1124): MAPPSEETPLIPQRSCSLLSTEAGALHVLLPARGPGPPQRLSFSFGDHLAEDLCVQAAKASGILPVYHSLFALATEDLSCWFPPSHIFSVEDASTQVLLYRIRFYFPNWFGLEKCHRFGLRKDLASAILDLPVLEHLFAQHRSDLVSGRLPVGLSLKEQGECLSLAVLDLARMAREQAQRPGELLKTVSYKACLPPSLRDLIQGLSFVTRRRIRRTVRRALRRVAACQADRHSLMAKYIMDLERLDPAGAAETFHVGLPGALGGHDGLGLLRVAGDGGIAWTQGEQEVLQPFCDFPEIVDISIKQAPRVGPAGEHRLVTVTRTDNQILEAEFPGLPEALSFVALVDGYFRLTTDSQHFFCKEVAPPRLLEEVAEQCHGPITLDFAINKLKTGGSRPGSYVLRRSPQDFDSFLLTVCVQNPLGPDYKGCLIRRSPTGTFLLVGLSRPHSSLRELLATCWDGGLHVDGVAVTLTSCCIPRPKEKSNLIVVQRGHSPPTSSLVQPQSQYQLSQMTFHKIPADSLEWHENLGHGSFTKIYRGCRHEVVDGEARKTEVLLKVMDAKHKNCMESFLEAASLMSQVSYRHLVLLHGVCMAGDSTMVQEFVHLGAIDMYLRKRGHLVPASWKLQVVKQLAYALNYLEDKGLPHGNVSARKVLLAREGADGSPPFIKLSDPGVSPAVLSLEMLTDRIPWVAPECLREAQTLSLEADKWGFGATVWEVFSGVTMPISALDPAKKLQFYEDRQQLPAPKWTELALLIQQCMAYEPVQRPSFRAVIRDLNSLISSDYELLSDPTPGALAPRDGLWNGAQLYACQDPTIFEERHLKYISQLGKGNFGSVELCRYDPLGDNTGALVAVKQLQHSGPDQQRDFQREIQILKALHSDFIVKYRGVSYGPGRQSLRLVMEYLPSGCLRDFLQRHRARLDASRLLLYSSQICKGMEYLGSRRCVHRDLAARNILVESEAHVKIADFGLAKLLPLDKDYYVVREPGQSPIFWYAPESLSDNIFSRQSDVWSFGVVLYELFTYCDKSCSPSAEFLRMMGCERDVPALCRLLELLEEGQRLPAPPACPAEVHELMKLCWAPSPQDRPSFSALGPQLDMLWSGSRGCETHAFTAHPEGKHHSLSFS

ROCK I (AA 6-553) = molecular target: T3, ROCK I (AA 6-553) (Homo sapiens, UniProt Q13464); experiment: ROCK inhibition assay, standard coupled enzyme system ("Enzyme"); settings: enzyme-linked assay
T3 construct: ROCK I (AA 6-553)
T3 sequence (Q13464 6-553, species assumed): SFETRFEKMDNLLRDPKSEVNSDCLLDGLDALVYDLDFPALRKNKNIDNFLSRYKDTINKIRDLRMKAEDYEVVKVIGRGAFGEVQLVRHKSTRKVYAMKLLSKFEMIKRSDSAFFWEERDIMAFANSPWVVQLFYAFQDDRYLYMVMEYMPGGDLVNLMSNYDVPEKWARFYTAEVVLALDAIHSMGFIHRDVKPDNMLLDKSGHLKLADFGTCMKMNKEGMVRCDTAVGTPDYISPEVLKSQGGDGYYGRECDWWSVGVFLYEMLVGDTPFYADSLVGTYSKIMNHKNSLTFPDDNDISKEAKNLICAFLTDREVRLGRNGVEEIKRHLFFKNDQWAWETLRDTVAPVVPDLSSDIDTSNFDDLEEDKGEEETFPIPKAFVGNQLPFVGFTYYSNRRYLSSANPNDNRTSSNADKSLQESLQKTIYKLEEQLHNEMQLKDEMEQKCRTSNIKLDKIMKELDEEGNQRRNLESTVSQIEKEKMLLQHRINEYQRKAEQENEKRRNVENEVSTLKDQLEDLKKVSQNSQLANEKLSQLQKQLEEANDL
In short: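 ROCK I (AA 6-553) at 45 nM and 30 °C with 45 μM ATP and 200 μM peptide, in 100 mM HEPES pH 7.5, 10 mM MgCl2, 25 mM NaCl, 2 mM DTT, 1.5% DMSO. ADP output read by a PK/LDH coupled system: 2.5 mM PEP, 350 μM NADH, 30 μg/ml PK, 10 μg/ml LDH.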

Aurora-B = Aurora-B (Homo sapiens, UniProt Q96GD4); experiment: Aurora-B inhibition assay, radioactive assay; settings: average Ki if more than one value determined
Aurora-B, sequence (Q96GD4 whole entry): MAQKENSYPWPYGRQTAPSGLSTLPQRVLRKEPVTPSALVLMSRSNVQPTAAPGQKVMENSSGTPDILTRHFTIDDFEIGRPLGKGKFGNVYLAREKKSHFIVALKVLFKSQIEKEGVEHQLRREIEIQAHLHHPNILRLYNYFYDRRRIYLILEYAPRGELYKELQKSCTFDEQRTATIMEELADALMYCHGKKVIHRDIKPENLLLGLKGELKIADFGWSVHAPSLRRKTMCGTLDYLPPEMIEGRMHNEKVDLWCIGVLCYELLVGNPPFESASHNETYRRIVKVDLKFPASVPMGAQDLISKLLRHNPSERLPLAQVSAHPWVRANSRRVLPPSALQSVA
In short: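 Radiometric [γ-33P]ATP kinase assay run as described for JAK3/ROCK but with Aurora-B protein; 33P incorporation into substrate measured by filter capture and scintillation counting after TCA quench. Background-subtracted data fit to give Ki(app).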

SMILES | pKi [1] | pKi (JAK2) | pKi (ROCK) | pKi (JAK3) | pKi (JAK2; Ki(app)) | pKi (ROCK; Ki(app)) | pKi (JAK3; Ki(app)) | pKi (ROCK I (AA 6-553)) | pKi (Aurora-B)
Clc1cnc2[nH]cc(-c3ccnc(N4CCCCCC4)n3)c2c1 [Compound 9] | 5.30 to 6.30 | > 6.30 | 5.30 to 6.30 | > 6.30 | 5.30 to 6.30 | 5.30 to 6.30 | 5.30 to 6.30 | – | –
Clc1cnc2[nH]cc(-c3cccc(NCc4ccccc4)n3)c2c1 [Compound 20] | > 6.30 | > 6.30 | 5.30 to 6.30 | > 6.30 | – | – | – | – | –
Nc1cccc(CNc2cc(-c3c[nH]c4ncccc34)ncn2)c1 [Compound 28] | – | > 6.30 | > 6.30 | > 6.30 | – | – | – | – | –
Fc1cc(F)cc(CNc2cc(-c3c[nH]c4ncccc34)ncn2)c1 [Compound 29] | – | > 6.30 | > 6.30 | > 6.30 | – | – | – | – | –
COc1cnc2[nH]cc(-c3ccnc(N4CCCN(S(C)(=O)=O)CC4)n3)c2c1 [Compound 30] | > 6.30 | > 6.30 | > 6.30 | > 6.30 | – | – | – | – | –
CCS(=O)(=O)N1CCCN(c2nccc(-c3c[nH]c4ncc(OC)cc34)n2)CC1 [Compound 31] | – | > 6.30 | > 6.30 | > 6.30 | – | – | – | – | –
CC(=O)N1[C@H](C)CN(c2nc(-c3c[nH]c4ncc(Cl)cc34)ccc2C(N)=O)C[C@@H]1C [Compound 32] | > 6.30 | > 6.30 | 5.30 to 6.30 | > 6.30 | – | – | – | – | –
CCCOC(=O)N1CCCN(c2nccc(-c3c[nH]c4ncc(OC)cc34)n2)CC1 [Compound 34] | – | > 6.30 | 5.30 to 6.30 | > 6.30 | – | – | – | > 6.30 | –
CC(=O)N1[C@H](C)CN(c2cccc(-c3c[nH]c4ncc(NC(=O)OC(C)(C)C)cc34)n2)C[C@@H]1C [Compound 37] | – | > 6.30 | > 6.30 | > 6.30 | – | – | – | 5.30 to 6.30 | –
Nc1ccc(-c2c(-c3ccccc3)[nH]c3ncc(Br)cc23)cc1 [Compound 212] | > 6.30 | – | 5.30 to 6.30 | – | – | – | – | – | 5.30 to 6.30

Next, values leading:

pKi [1] | pKi (JAK2) | pKi (ROCK) | pKi (JAK3) | pKi (JAK2; Ki(app)) | pKi (ROCK; Ki(app)) | pKi (JAK3; Ki(app)) | pKi (ROCK I (AA 6-553)) | pKi (Aurora-B) | SMILES
> 6.30 | > 6.30 | > 6.30 | > 6.30 | – | – | – | – | – | Clc1cnc2[nH]cc(-c3ccnc(NCc4ccccc4)n3)c2c1 [Compound 4]
> 6.30 | > 6.30 | > 6.30 | > 6.30 | – | – | – | – | – | CC(C)C[C@@H](CO)Nc1nccc(-c2c[nH]c3ncc(Cl)cc23)n1 [Compound 10]
5.30 to 6.30 | > 6.30 | > 6.30 | > 6.30 | – | – | – | – | – | COc1cnc2[nH]cc(-c3cc(N[C@@H](C)c4ccccc4)ncn3)c2c1 [Compound 14]
– | > 6.30 | > 6.30 | > 6.30 | – | – | – | – | – | Clc1cccc(CNc2cc(-c3c[nH]c4ncccc34)ncn2)c1 [Compound 21]
– | > 6.30 | > 6.30 | > 6.30 | – | – | – | – | – | FC(F)(F)c1cccc(CNc2cc(-c3c[nH]c4ncccc34)ncn2)c1 [Compound 22]
– | 5.30 to 6.30 | > 6.30 | 5.30 to 6.30 | – | – | – | – | – | c1ccc(-c2cccc(CNc3cc(-c4c[nH]c5ncccc45)ncn3)c2)cc1 [Compound 23]
5.30 to 6.30 | > 6.30 | > 6.30 | > 6.30 | – | – | – | – | – | COc1cnc2[nH]cc(-c3ccnc(N4CCCN(C(C)=O)CC4)n3)c2c1 [Compound 24]
> 6.30 | > 6.30 | > 6.30 | > 6.30 | – | – | – | – | – | COc1cnc2[nH]cc(-c3ccnc(N4C[C@@H](C)N(C(C)=O)[C@@H](C)C4)n3)c2c1 [Compound 25]
– | > 6.30 | > 6.30 | > 6.30 | – | – | – | – | – | CN(Cc1ccccc1)c1cc(-c2c[nH]c3ncccc23)ncn1 [Compound 26]
– | > 6.30 | > 6.30 | > 6.30 | – | – | – | – | – | Fc1ccc(CNc2cc(-c3c[nH]c4ncccc34)ncn2)cc1 [Compound 27]
